Key:
[1] = test system: JAK2 dependent signaling in HEL92.1.7 cells; test: Western blot of JAK/STAT signaling in HEL92.1.7 cells; assay type: cell-based, human
Experimental: FIG. 2 compares the more durable ganetespib durable inhibition of JAK/STAT signaling to P6. HEL92.1.7 cells were cultured in the presence of 250 nM Ganetespib or 1000 nM P6 and harvested at the indicated time points. The levels of JAK2, phosphorylated and total STAT3 and STAT5, phospho-AKT, phospho-ERK and GAPDH were determined by western blot.
(§1) Cells were disrupted in lysis buffer (CST) and solubilized in 2% SDS. Xenograft tumors (average volume of 100-200 mm3) were excised, cut in half, and flash frozen in liquid nitrogen. Each tumor fragment was lysed in 0.5 mL of lysis buffer using a FastPrep-24 homogenizer and Lysing Matrix A (MP Biomedicals, Solon, Ohio, USA) and lysates clarified by centrifugation. Equal amounts of proteins were resolved by SDS-PAGE and immunoblotted with indicated antibodies. The antigen-antibody complex was visualized and quantitated using an Odyssey system (LI-COR, Lincoln, Nebr., USA).

[2] = test system: Cdk1, phospho-Chk2, cyclins in HEL92.1.7 cells; test: Western blot of cell cycle proteins in HEL92.1.7 cells; assay type: cell-based, human
Experimental: Cells were harvested at the indicated time points and the levels of total and phospho-Cdk1, phospho-Chk2 and GAPDH analyzed by western blot.
FIG. 12 illustrates the effects of ganetespib on JAK/STAT and cell cycle protein expression. HEL92.1.7 cells were treated with 100 nM ganetespib and subject to western blot to determine the levels of Cdk1, cyclin B1, cyclin A1, JAK2, total and phospho-STAT3, and GAPDH at hourly intervals over an 11 h time course.
as §1

[3] = test system: HEL92.1.7 cells; test: Flow cytometry cell cycle analysis; assay type: cell-based, human
Experimental: HEL92.1.7 cells were plated at 0.5×10^6 cells/mL and treated as indicated. Cells were harvested and stained with propidium iodide using the BD Cycle TEST PLUS Reagent Kit (BD Biosciences, San Jose, Calif., USA) according to the manufacturer's instructions. Twenty thousand cells were analyzed for their DNA content using a FACS Caliber cytometer (BD Biosciences).

[4] = test system: JAK2/STAT3 signaling in HCC827 cells; test: Western blot of constitutive and IL-6 induced STAT3 activity in HCC827 cells; assay type: cell-based, human
Experimental: HCC827 lung cancer cells were treated with increasing concentrations of ganetespib or P6 for 24 h followed by a 15 min stimulation with or without 50 ng/ml human recombinant IL-6. The levels of JAK2, total and phospho-STAT3, and PIM2 were analyzed by western blot. GAPDH is included as a loading control.
as §1

[5] = test system: JAK/STAT target and cell cycle gene expression in HEL92.1.7 cells; test: RNA expression profiling (RT-PCR, Affymetrix) in HEL92.1.7 cells; assay type: cell-based, human
Experimental: HEL92.1.7 cells were treated with DMSO, P6 (100 or 1000 nM) or ganetespib (25 or 250 nM) for 4 h or 24 h, and total RNA extracted using Trizol (Invitrogen). RNA was purified with the RNeasy kit (Qiagen, Hilden, Germany) and converted to cDNA via an iScript kit (BioRad, Hercules, Calif., USA). Oligonucleotide primers were purchased from SABiosciences (Frederick, Md., USA). PCR was done with iQ SYBR Green Supermix (Bio-Rad), and levels of the tested genes were normalized to HPRT expression using the comparative Ct method.
Biotinylated aRNA was generated by in vitro transcription using Affymetrix GeneChip Expression IVT labeling kit (Affymetrix, Santa Clara, Calif., USA). Fifteen micrograms of labeled aRNA was fragmented and hybridized to Affymetrix GeneChip Human Genome U133 Plus 2 arrays and scanned using a GeneChip Scanner (Affymetrix). Array data were analyzed with the Affymetrix Expression Console Software utilizing the MASS algorithm. In order to generate a threshold for identifying probe sets that have large differences between 1000 nM P6 (4 h) and 250 nM ganetespib (24 h) arrays and their controls in the absence of treatment replicates, data from four control arrays (DMSO only; two at 4 h, and two at 24 h) were used to create an expression level dependent fold-difference envelope that reflects the increasing measurement variability as expression level decreases. This envelope, used in lieu of a fixed fold-difference criteria, was formed by identifying the xth percentile expression-level difference (where x was large, typically 99.9%) at each mean expression level bin. To achieve this, data were used from the six possible comparisons from the four DMSO-only arrays. The resulting, smoothed threshold fold-difference envelope was then applied to the two compound-treated/control array pairs to identify those probe-sets that have large expression level differences between treatment and control. For hierarchical analysis, genes with greater than two fold changes in expression with 250 nM ganetespib were clustered using established algorithms in Cluster (49) and a subset visualized by TreeView.

[6] = test system: JAK2/STAT signaling in NCI-H1975 cells; test: Western blot of JAK/STAT and Hsp90 client proteins in NCI-H1975 cells; assay type: cell-based, human; details: 24 h
Experimental: NCI-H1975 cells were dosed with the indicated concentrations of ganetespib for 24 h and their cell lysates analyzed to determine JAK/STAT and Hsp90 client protein levels using the antibodies indicated.
as §1

[7] = test system: JAK2 signaling in DU145 cells; test: Western blot of JAK/STAT proteins in DU145 cells; assay type: cell-based, human
Experimental: DU145 cells were dosed with graded concentrations of ganetespib for 24 h and cell lysates subject to western blot to determine JAK/STAT and target protein levels using the antibodies indicated.
DU145 cells were treated with DMSO (control, C), 15 nM, 60 nM or 240 nM ganetespib for either 24 or 48 h and lysates probed by western blot with the indicated antibodies.
as §1

[8] = Tolerability studies in non-tumor bearing mice; assay type: in vivo; details: i.v.
Experimental: For both models, studies were conducted at the highest non-severely toxic doses (NHSTDs) of 150 mg/kg ganetespib one-time per week or 25 mg/kg ganetespib 5×/week for 3 weeks based on prior tolerability studies conducted in non-tumor bearing mice.

[9] = 24 h, absence of external ligand

CC(C)c1cc(-c2nnc(O)n2-c2ccc3c(ccn3C)c2)c(O)cc1O [ganetespib, 3-(2,4-dihydroxy-5-isopropyl-phenyl)-4-(1-methyl-indol-5-yl)-5-hydroxy-[1,2,4] triazole]
JAK2 and phospho-AKT protein levels [1]: targeted loss of JAK2 and phospho-AKT protein levels
duration of STAT signaling suppression compared to P6 [1]: suppressed STAT signaling longer
potency compared to P6, JAK/STAT inhibitory activity [1]: at least four-fold more potent
JAK2 dependent signaling (phospho-STAT3, phospho-STAT5, ERK signaling) ([1]; 250 nM ganetespib or 1000 nM P6): blocked JAK2 dependent signaling
level of phospho-Chk2 [2]: reduced
cyclins A1 and B1 levels ([2]; 100 nM, 11 h time course): temporal accumulation of cyclins A1 and B1
Cdk1 protein expression ([2]; ganetespib 250 nM or P6 1000 nM, 24-48 h): Reduced protein levels
cell cycle distribution [3]: temporal G1 and G2/M arrest in HEL92.1.7 cells, with concomitant loss of S phase
JAK2 expression [4, 9]: dose-dependent decrease in JAK2 expression
constitutive STAT3 activity [4, 9]: loss of STAT3 activity
JAK/STAT signaling stimulated by exogenous IL-6 ([4]; 24 h then 15 min 50 ng/ml IL-6): blocked JAK/STAT signaling stimulation
expression of cell cycle-related genes ([5]; 250 nM, 24 h): selectively altered the expression of a large set of genes involved in cell cycle-related activities
expression of heat shock protein genes ([5]; 250 nM, 24 h): up-regulation of numerous heat shock protein genes
expression of JAK/STAT target genes (SOCS and PIM family members) ([5]; 4 hour P6 (1000 nM), 24 hour ganetespib (250 nM)): downregulated
AKT and GSK3β activity [6]: Inactivation of AKT and GSK3β
EGFR expression [6]: dose dependent decrease in EGFR expression
JAK2 and phosphorylated STAT3 levels [6]: potent degradation of JAK2 and loss of phosphorylated STAT3 in a dose-dependent manner
levels of phosphorylated BAD [6]: concomitant reduction in the levels of phosphorylated BAD
JAK1 kinase level ([7]; 15-240 nM, 24 or 48 h): not targeted for degradation
JAK2, phospho-STAT3 and phospho-SHP2 levels ([7]; 24 h): Loss of JAK2, phospho-STAT3 and phospho-SHP2
highest non-severely toxic dose ([8]; 5×/week for 3 weeks): 25 mg/kg
highest non-severely toxic dose ([8]; one-time per week for 3 weeks): 150 mg/kg

Source: patent US20140045908A1, “HSP90 INHIBITORY COMPOUNDS IN TREATING JAK/STAT SIGNALING-MEDIATED CANCERS” (SYNTA PHARMACEUTICALS CORP., priority 2011, published 2014)
